Source: patent US11865126B2, “Method for treating anxiety disorders, headache disorders, and eating disorders with psilocybin” (priority 2019, dated 2024)

System: healthy subjects
Assay: Phase 1 healthy volunteer study, single oral dose: treatment-emergent adverse events
Format: in vivo, human
Protocol: A Phase 1 randomized, double-blind, placebo-controlled study to evaluate the effect of psilocybin on cognitive and emotional processing as compared to placebo in healthy volunteers was conducted. The study investigated the short-term (Day 7) and long-term (Day 28) effects of moderate (10 mg) and high doses (25 mg) of psilocybin on key domains of cognition, such as episodic memory, attention, working and spatial memory, social cognition and elements of executive function, including cognitive flexibility.
90 healthy subjects were studied. Approximately 50% of the subjects were psilocybin-naïve. For subjects with prior psilocybin experience, the last exposure was at least 1 year prior to the signing of the Informed Consent Form (ICF). Approximately 50% of the subjects were female. Subjects were stratified by sex and age (18-35 years old; >35 years old).
Each subject was assigned 1 treatment bottle containing 5 capsules packaged in a double-blind fashion, depending on the randomized treatment arm, the bottle contained one of the following: • a. Psilocybin 10 mg: 2×5-mg oral psilocybin capsules plus 3× placebo capsules • b. Psilocybin 25 mg: 5×5-mg oral psilocybin capsules • c. Placebo: 5× placebo capsules
Each 5-mg oral psilocybin capsule comprised 5 mg crystalline psilocybin in the form of Polymorph A, 12.5 mg of SMCC 50, 79.5 mg of SMCC 90, 1 mg sodium starch glycolate, 1 mg colloidal silicon dioxide, and 1 mg sodium stearyl fumarate
Adverse events: Throughout the course of the study, all AEs were monitored and recorded. Each AE was classified according to the following criteria: • i. […] Moderate: The AE produces some impairment of functioning, but is not hazardous to the subject's health. • iii. Severe: The AE produces significant impairment of functioning or incapacitation and is a definite hazard to the subject's health.
Selected Adverse Events of included: • (a) Euphoric mood • (b) Dissociative disorder • (c) Hallucination • (d) Psychotic disorder • (e) Cognitive disorder • (f) Disturbance in attention • (g) Altered mood • (h) Impairment of psychomotor skills • (i) Inappropriate affect • (j) Overdose • (k) Intentional product misuse • (l) Illusion
For example, drug-induced hepatitis that resolved without evidence of hepatic failure would not be considered life threatening even though drug-induced hepatitis can be fatal. • (c) Inpatient hospitalization or prolongation of existing hospitalization. • (d) Persistent or significant disability/incapacity. • (e) Congenital anomaly/birth defect in the offspring of a subject who received psilocybin. • (f) Other: Important medical events that may not result in death, be life-threatening, or require hospitalization, may be considered an SAE when, based upon appropriate medical judgment, they may jeopardize the subject and may require medical or surgical intervention to prevent one of the outcomes listed in this definition. […] Visits:
Visit 3 (V3): Drug Administration (Day 0): The subject was asked to eat a light breakfast at least two hours prior to coming to the clinic for study drug administration. On Day 0 (V3), the subject underwent the SSTS, had vital signs obtained, medications reviewed, AEs recorded and eligibility reviewed prior to being randomized to study drug. The study drug was administered to up to six subjects simultaneously in individual beds separated by a curtain. The subject was invited to put on eyeshades and headphones, lie down and listen to calming music for the rest of the session (six hours). The subject was supported 1:1 with a chaperone and supervised by the study psychiatrist and lead therapist.
Recording of adverse events and prior/concomitant medication was performed at each visit.
During administration of psilocybin, each subject received one on one support from a trained assisting therapist and each dosing session was supervised by a study psychiatrist and a lead therapist. […]

Compound: CN(C)CCc1c[nH]c2cccc(OP(=O)(O)O)c12 [psilocybin]
- Nervous system disorders, worst severity Moderate: Events (25 mg): 10
- Nervous system disorders, worst severity Severe: Events (25 mg): 1
- Nervous system disorders: Events (25 mg): 43
- Paraesthesia, worst severity Mild: Events (25 mg): 3
- Paraesthesia, worst severity Mild: N (%) (25 mg): 3 (10.0)
- Paraesthesia, worst severity Moderate: Events (25 mg): 1
- Paraesthesia, worst severity Severe: Events (25 mg): 0
- Paraesthesia, worst severity Severe: N (%) (25 mg): 0
- Paraesthesia: Events (25 mg): 4
- Psychiatric disorders, worst severity Mild: Events (25 mg): 5
- Psychiatric disorders, worst severity Moderate: Events (25 mg): 45
- Psychiatric disorders, worst severity Severe: Events (25 mg): 27
- Psychiatric disorders, worst severity Severe: N (%) (25 mg): 9 (30.0)
- Respiratory, thoracic and mediastinal disorders: Events (25 mg): 3
- Respiratory, thoracic and mediastinal disorders: N (%) (25 mg): 3 (10.0)
- Somatic hallucination, worst severity Mild: Events (25 mg): 2
- Somatic hallucination, worst severity Moderate: Events (25 mg): 2
- Somatic hallucination, worst severity Severe: Events (25 mg): 2
- Somatic hallucination: Events (25 mg): 6
- Tension headache, worst severity Mild: Events (25 mg): 4
- Tension headache, worst severity Moderate: Events (25 mg): 2
- Tension headache, worst severity Severe: Events (25 mg): 0
- Tension headache, worst severity Severe: N (%) (25 mg): 0
- Tension headache: Events (25 mg): 6
- Tension headache: N (%) (25 mg): 6 (20.0)
- Time perception altered, worst severity Mild: Events (25 mg): 2
- Time perception altered, worst severity Moderate: Events (25 mg): 4
- Time perception altered, worst severity Severe: Events (25 mg): 0
- Time perception altered, worst severity Severe: N (%) (25 mg): 0
- Time perception altered: Events (25 mg): 6
- Time perception altered: N (%) (25 mg): 6 (20.0)
- Reported 'Mood altered' events: Being less judgmental (25 mg psilocybin (n = 30)): 0
- Reported 'Mood altered' events: Calm (25 mg psilocybin (n = 30)): 0
- Reported 'Mood altered' events: Clarity of thought (25 mg psilocybin (n = 30)): 1
- Reported 'Mood altered' events: Contemplative state (25 mg psilocybin (n = 30)): 1
- Reported 'Mood altered' events: Feeling more moody/sensitive (25 mg psilocybin (n = 30)): 0
- Reported 'Mood altered' events: Feeling of adrenaline release (25 mg psilocybin (n = 30)): 0
- Reported 'Mood altered' events: Feeling rested (25 mg psilocybin (n = 30)): 0
- Reported 'Mood altered' events: Increased compassion (25 mg psilocybin (n = 30)): 1
- Reported 'Mood altered' events: Increased creativity (25 mg psilocybin (n = 30)): 1
- Reported 'Mood altered' events: Increased empathy (25 mg psilocybin (n = 30)): 2
- Reported 'Mood altered' events: Increased sense of connectedness (25 mg psilocybin (n = 30)): 1
- Reported 'Mood altered' events: Increased wit (25 mg psilocybin (n = 30)): 0
- Reported 'Mood altered' events: Introspection (25 mg psilocybin (n = 30)): 8
- Reported 'Mood altered' events: Laughter (25 mg psilocybin (n = 30)): 1
- Reported 'Mood altered' events: More socially upbeat (25 mg psilocybin (n = 30)): 1
- Reported 'Mood altered' events: Negative mood (25 mg psilocybin (n = 30)): 0
- Reported 'Mood altered' events: Reflections (25 mg psilocybin (n = 30)): 4
- Reported 'Mood altered' events: Saw themselves from a new perspective (25 mg psilocybin (n = 30)): 1
- Reported 'Mood altered' events: Sense of oneness (25 mg psilocybin (n = 30)): 2
- Reported 'Mood altered' events: Sense of openness (25 mg psilocybin (n = 30)): 0
- Reported 'Mood altered' events: Unusual appreciation of music (25 mg psilocybin (n = 30)): 0
- Any TEAE: % of subjects (25 mg, listed as Psilocybin): (96.7) %
- Affect lability, Events (Psilocybin 10 mg (N = 30)): 5
- Change in sustained attention, Events (Psilocybin 10 mg (N = 30)): 2
- Depressed mood, Events (Psilocybin 10 mg (N = 30)): 1
- Dissociative identity disorder, Events (Psilocybin 10 mg (N = 30)): 2
- Euphoric mood, Events (Psilocybin 10 mg (N = 30)): 7
- Hallucination, Events (Psilocybin 10 mg (N = 30)): 3
- Hallucination, N (%) (Psilocybin 10 mg (N = 30)): 3 (10.0)
- Hallucination, auditory, Events (Psilocybin 10 mg (N = 30)): 4
- Hallucination, gustatory, Events (Psilocybin 10 mg (N = 30)): 1
- Hallucination, olfactory, Events (Psilocybin 10 mg (N = 30)): 1
- Hallucination, tactile, Events (Psilocybin 10 mg (N = 30)): 2
- Hallucination, visual, Events (Psilocybin 10 mg (N = 30)): 20
- Illusion, Events (Psilocybin 10 mg (N = 30)): 25
- Memory impairment, Events (Psilocybin 10 mg (N = 30)): 1
- Mood altered, Events (Psilocybin 10 mg (N = 30)): 23
- Nervous system disorders, Events (Psilocybin 10 mg (N = 30)): 2
- Nervous system disorders, N (%) (Psilocybin 10 mg (N = 30)): 2 (6.7)
- Psychiatric disorders, Events (Psilocybin 10 mg (N = 30)): 104
- Psychomotor skills impaired, Events (Psilocybin 10 mg (N = 30)): 1
- Selected TEAE (any), Events (Psilocybin 10 mg (N = 30)): 106
- Selected TEAE (any), N (%) (Psilocybin 10 mg (N = 30)): 27 (90.0)
- Somatic hallucination, Events (Psilocybin 10 mg (N = 30)): 8
- Substance-induced psychotic disorder, Events (Psilocybin 10 mg (N = 30)): 0
- Substance-induced psychotic disorder, N (%) (Psilocybin 10 mg (N = 30)): 0
- Affect lability, Events (Psilocybin 25 mg (N = 30)): 3
- Affect lability, N (%) (Psilocybin 25 mg (N = 30)): 3 (10.0)
- Change in sustained attention, Events (Psilocybin 25 mg (N = 30)): 0
- Change in sustained attention, N (%) (Psilocybin 25 mg (N = 30)): 0
- Depressed mood, Events (Psilocybin 25 mg (N = 30)): 2
- Dissociative identity disorder, Events (Psilocybin 25 mg (N = 30)): 2
- Euphoric mood, Events (Psilocybin 25 mg (N = 30)): 8
- Hallucination, Events (Psilocybin 25 mg (N = 30)): 2
- Hallucination, auditory, Events (Psilocybin 25 mg (N = 30)): 4
- Hallucination, gustatory, Events (Psilocybin 25 mg (N = 30)): 0
- Hallucination, gustatory, N (%) (Psilocybin 25 mg (N = 30)): 0
- Hallucination, olfactory, Events (Psilocybin 25 mg (N = 30)): 1
- Hallucination, tactile, Events (Psilocybin 25 mg (N = 30)): 4
- Hallucination, visual, Events (Psilocybin 25 mg (N = 30)): 22
- Illusion, Events (Psilocybin 25 mg (N = 30)): 26
- Memory impairment, Events (Psilocybin 25 mg (N = 30)): 0
- Memory impairment, N (%) (Psilocybin 25 mg (N = 30)): 0
- Mood altered, Events (Psilocybin 25 mg (N = 30)): 25
- Nervous system disorders, Events (Psilocybin 25 mg (N = 30)): 0
- Nervous system disorders, N (%) (Psilocybin 25 mg (N = 30)): 0
- Psychiatric disorders, Events (Psilocybin 25 mg (N = 30)): 106
- Psychomotor skills impaired, Events (Psilocybin 25 mg (N = 30)): 0
- Psychomotor skills impaired, N (%) (Psilocybin 25 mg (N = 30)): 0
- Selected TEAE (any), Events (Psilocybin 25 mg (N = 30)): 106
- Selected TEAE (any), N (%) (Psilocybin 25 mg (N = 30)): 27 (90.0)
- Somatic hallucination, Events (Psilocybin 25 mg (N = 30)): 6
- Substance-induced psychotic disorder, Events (Psilocybin 25 mg (N = 30)): 1
